Earlier results in patent US20030216871A1, “Calculating a characteristic property of a molecule by correlation analysis” (priority 2001, published 2003).

Key:
[1] = tested on: human tumor cells in culture; settings: C is average IC50 from assays, values from S. P. Gupta, Chem. Review 94, 1519 (1994); cited from earlier work
[2] = experimental logP used as measured property in R matrix; cited from earlier work
[3] = organic amines, 25C, I = 0; cited from earlier work

Compound	Experimenter value of Active Concentration (log1/C) Against Human Tumor [1]	logP [2]	pK exper [3]
CO[C@@]12[C@H](COC(N)=O)C3=C(C(=O)C(C)=C(N)C3=O)N1C[C@@H]1N[C@@H]12 [Compound 1]	7.7	–	–
C#CCNC1=C(C)C(=O)C2=C(C1=O)C(COC(N)=O)C1(OC)C3NC3CN21 (stereo not drawn) [Compound 3]	8.46	0.24	–
CO[C@@]12[C@H](COC(N)=O)C3=C(C(=O)C(C)=C(NCCc4ccccn4)C3=O)N1C[C@@H]1N[C@@H]12 [Compound 6]	7.38	1.23	–
COC12C(COC(N)=O)C3=C(C(=O)C(C)=C(Nc4ccccc4)C3=O)N1CC1NC12 (stereo not drawn) [Compound 7]	8.78	1.3	–
COC12C(COC(N)=O)C3=C(C(=O)C(C)=C(Nc4ccc(N)cc4)C3=O)N1CC1NC12 (stereo not drawn) [Compound 8]	7.83	0.07	–
COC12C(COC(N)=O)C3=C(C(=O)C(C)=C(Nc4ccc(Br)cc4)C3=O)N1CC1NC12 (stereo not drawn) [Compound 10]	8.72	2.16	–
COC12C(COC(N)=O)C3=C(C(=O)C(C)=C(Nc4cccc(I)c4)C3=O)N1CC1NC12 (stereo not drawn) [Compound 11]	8.9	2.42	–
COC12C(COC(N)=O)C3=C(C(=O)C(C)=C(Nc4ccc(I)cc4)C3=O)N1CC1NC12 (stereo not drawn) [Compound 12]	8.77	2.42	–
COC12C(COC(N)=O)C3=C(C(=O)C(C)=C(Nc4ccc(O)cc4)C3=O)N1CC1NC12 (stereo not drawn) [Compound 13]	7.88	0.63	–
CO[C@@]12[C@H](COC(N)=O)C3=C(C(=O)C(C)=C(Nc4ccc([N+](=O)[O-])cc4)C3=O)N1C[C@@H]1N[C@@H]12 [Compound 14]	9.07	1.02	–
COC12C(COC(N)=O)C3=C(C(=O)C(C)=C(Nc4ccc(O)c(I)c4)C3=O)N1CC1NC12 (stereo not drawn) [Compound 15]	7.76	1.75	–
COC12C(COC(N)=O)C3=C(C(=O)C(C)=C(Nc4ccc(O)c([N+](=O)[O-])c4)C3=O)N1CC1NC12 (stereo not drawn) [Compound 16]	7.71	0.51	–
CO[C@@]12[C@H](COC(N)=O)C3=C(C(=O)C(C)=C(Nc4ccc5[nH]ccc5c4)C3=O)N1C[C@@H]1N[C@@H]12 [Compound 17]	8.75	2.45	–
COC12C(COC(N)=O)C3=C(C(=O)C(C)=C(Nc4nc(C)cs4)C3=O)N1CC1NC12 (stereo not drawn) [Compound 18]	8.69	1.52	–
COC12C(COC(N)=O)C3=C(C(=O)C(C)=C(Nc4cc[nH]n4)C3=O)N1CC1NC12 (stereo not drawn) [Compound 19]	7.38	0.56	–
COC1=C(C)C(=O)C2=C(C1=O)[C@@H](COC(N)=O)[C@@]1(OC)[C@H]3N[C@H]3CN21 [Compound 20]	9.52	0.26	–
COC12C(COC(N)=O)C3=C(C(=O)C(C)=C(OC4CC4)C3=O)N1CC1NC12 (stereo not drawn) [Compound 21]	9.2	0.83	–
CO[C@@]12[C@H](COC(N)=O)C3=C(C(=O)C(C)=C(OCC4CC4)C3=O)N1C[C@@H]1N[C@@H]12 [Compound 22]	9.43	–	–
COC12C(COC(N)=O)C3=C(C(=O)C(C)=C(OCC4CCC4)C3=O)N1CC1NC12 (stereo not drawn) [Compound 23]	9.66	2.47	–
COC12C(COC(N)=O)C3=C(C(=O)C(C)=C(OCc4ccccc4)C3=O)N1CC1NC12 (stereo not drawn) [Compound 24]	9.21	1.94	–
COC12C(COC(N)=O)C3=C(C(=O)C(C)=C(OCCO)C3=O)N1CC1NC12 (stereo not drawn) [Compound 25]	8.31	−1.1	–
COC12C(COC(N)=O)C3=C(C(=O)C(C)=C(OCCOc4ccccc4)C3=O)N1CC1NC12 (stereo not drawn) [Compound 26]	9.48	1.74	–
CO[C@@]12[C@H](COC(N)=O)C3=C(C(=O)C(C)=C(OCCOCCO)C3=O)N1C[C@@H]1N[C@@H]12 [Compound 27]	7.32	−1.08	–
COCCOCCOC1=C(C)C(=O)C2=C(C1=O)[C@@H](COC(N)=O)[C@@]1(OC)[C@H]3N[C@H]3CN21 [Compound 28]	8.24	−0.46	–
NC1C=CCCC1 (stereo not drawn) [Compound 95]	–	–	10.42
CC1=CCCCC1N (stereo not drawn) [Compound 96]	–	–	10.37
